Consider eleven molecules from ChEMBL document CHEMBL1201862, “PubChem BioAssay data set” (2004).

Structures are written as SMILES.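 Five compound concentrations were applied to cells in 96-well plates for 48 hours; endpoints were derived by simple linear interpolation of the resulting dose-response curve. At the GI50, growth is halved.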 Active and inactive are the calls of the source. Rule as the data show it: active = GI50 up to about 1.1 µM and inactive = higher.

Some test systems named below: DLD-1; DMS-114; DMS-273; HOP-18; KM-20L2; LXFL 529; M19-MEL; XF498; RXF 631.
Holding throughout (assay): NCI tumour cell line growth inhibition, 48 h

Consider `NC(CCCNCc1ccccc1O)C(=O)O` (configuration not stated), for which the GI50 in the experiment on DLD-1, with DMS-114, in the experiment with DMS-273, in the experiment with HOP-18, with KM-20L2 and in the experiment on LXFL 529 was > 100 µM (inactive) throughout. Also, the GI50 in the experiment with M19-MEL is > 100 µM (inactive).

For `C=C1CCCC(C)(C)[C@@H]1CC/C(C)=C/Cn1c2cccc(=O)c-2nc2ccccc21`, the GI50 in the experiment with DLD-1 is 1.26 µM (inactive); in the experiment on DMS-114, 1.09 µM (active); in the experiment with DMS-273, 1.48 µM (inactive); in the experiment on HOP-18, 7.1 µM (inactive); in the experiment with M19-MEL, 1.26 µM (inactive); in the experiment on XF498, 2.29 µM (inactive).

Take `O=C1C(Cl)N(c2c(Cl)cccc2Cl)C1c1c[nH]c2ccccc12` (configuration not stated): the GI50 in the experiment on DLD-1, with KM-20L2, with LXFL 529, in the experiment on M19-MEL and in the experiment on XF498 was > 100 µM (inactive) throughout.

On to `CCCCCCCCCCCCCCCCNCCCN(C)CCCN`, for which the GI50 in the experiment on DLD-1 was 16.8 µM (inactive); in the experiment on DMS-114, 16.6 µM (inactive); with DMS-273, 17.8 µM (inactive); in the experiment on KM-20L2, 18.2 µM (inactive); with LXFL 529 it was 18.6 µM (inactive); in the experiment on M19-MEL, 19.9 µM (inactive).

Consider `CCCc1onc(CCC(=O)N(Cc2ccccc2)Cc2ccccc2)c1CC`, for which the GI50 in the experiment on DLD-1, with DMS-114, in the experiment on DMS-273, in the experiment with KM-20L2, with LXFL 529 and in the experiment with M19-MEL was > 100 µM (inactive) in each case. Moreover, the GI50 in the experiment on RXF 631 and in the experiment on XF498 was > 100 µM (inactive) throughout.

For `O=C(O)CCC(=O)N1c2ccccc2CC1c1c[nH]c2ccccc12` (configuration not stated), the GI50 with DMS-114, in the experiment on DMS-273, in the experiment with HOP-18, in the experiment on KM-20L2, with LXFL 529 and in the experiment with M19-MEL was > 100 µM (inactive) in each case. In addition, the GI50 with XF498 is > 100 µM (inactive).

As to `CCCCCCCCCCCC1CCCC(C)N1` (configuration not stated), the GI50 was 24.5 µM (inactive) with DLD-1; 56.2 µM (inactive) in the experiment with DMS-114; 65.2 µM (inactive) with DMS-273; 87.9 µM (inactive) with HOP-18; 29 µM (inactive) in the experiment on KM-20L2; 56.2 µM (inactive) with M19-MEL. In addition, the GI50 in the experiment with XF498 is 47.4 µM (inactive).

For `COc1cc(CCc2ccc(OCCN(C)C)cc2)cc(OC)c1OC`, the GI50 with DLD-1 was > 100 µM (inactive); in the experiment on DMS-114, 47.8 µM (inactive); in the experiment on DMS-273 it was > 100 µM (inactive); in the experiment with HOP-18, > 100 µM (inactive); in the experiment with KM-20L2 it was 76.9 µM (inactive); in the experiment with LXFL 529 it was 77.6 µM (inactive). The GI50 was > 100 µM (inactive) in the experiment with M19-MEL, 88.7 µM (inactive) with RXF 631 and 38.5 µM (inactive) in the experiment with XF498.

Consider `Cc1cc(N(CCC#N)CCC#N)ccc1/C=C(\NC(=O)/C=C/c1ccccc1)NC(=O)Nc1ccccc1C`, for which the GI50 with DLD-1 is 78.3 µM (inactive); in the experiment on DMS-114, 89.7 µM (inactive); in the experiment with DMS-273 it was > 100 µM (inactive); with KM-20L2 it was > 100 µM (inactive); with LXFL 529, 47.6 µM (inactive); in the experiment on M19-MEL it was > 100 µM (inactive). Besides, the GI50 in the experiment on RXF 631 is 84.1 µM (inactive); in the experiment on XF498, > 10 µM (inactive).

On to `C[C@@]12CC[C@H]3[C@@H]4CCC(=O)N[C@@]4(C)CC[C@@H]3[C@@]1(C)CC[C@H](OC(=O)Cc1ccc(N(CCCl)CCCl)cc1)C2`, for which the GI50 in the experiment on DLD-1 was 19.7 µM (inactive); in the experiment with DMS-114, 15 µM (inactive); in the experiment with DMS-273, 15.2 µM (inactive); in the experiment on HOP-18 it was 18 µM (inactive); with KM-20L2, 18.2 µM (inactive); in the experiment on M19-MEL it was 17.5 µM (inactive).

Consider `COC(=O)c1cc(CNCCc2c[nH]c3ccccc23)on1`, for which the GI50 in the experiment on DLD-1, in the experiment on DMS-114, in the experiment on DMS-273, in the experiment on KM-20L2, in the experiment on LXFL 529 and with M19-MEL was > 100 µM (inactive) throughout. Further, the GI50 was > 100 µM (inactive) with RXF 631 and 23.1 µM (inactive) in the experiment on XF498.
